Assay results reported in patent publication US20260216347A1, “Substituted Imidazo-Based Compounds as Ligand Directed Degraders of IRAK3” (Celgene Corporation, priority 2022, published 2026).

Molecular target: T1, IRAK3 (Homo sapiens, UniProt Q9Y616)
T1 construct: IRAK Endogenous HTRF Degradation Assay; endogenous in cells
T1 sequence (Q9Y616 1-596): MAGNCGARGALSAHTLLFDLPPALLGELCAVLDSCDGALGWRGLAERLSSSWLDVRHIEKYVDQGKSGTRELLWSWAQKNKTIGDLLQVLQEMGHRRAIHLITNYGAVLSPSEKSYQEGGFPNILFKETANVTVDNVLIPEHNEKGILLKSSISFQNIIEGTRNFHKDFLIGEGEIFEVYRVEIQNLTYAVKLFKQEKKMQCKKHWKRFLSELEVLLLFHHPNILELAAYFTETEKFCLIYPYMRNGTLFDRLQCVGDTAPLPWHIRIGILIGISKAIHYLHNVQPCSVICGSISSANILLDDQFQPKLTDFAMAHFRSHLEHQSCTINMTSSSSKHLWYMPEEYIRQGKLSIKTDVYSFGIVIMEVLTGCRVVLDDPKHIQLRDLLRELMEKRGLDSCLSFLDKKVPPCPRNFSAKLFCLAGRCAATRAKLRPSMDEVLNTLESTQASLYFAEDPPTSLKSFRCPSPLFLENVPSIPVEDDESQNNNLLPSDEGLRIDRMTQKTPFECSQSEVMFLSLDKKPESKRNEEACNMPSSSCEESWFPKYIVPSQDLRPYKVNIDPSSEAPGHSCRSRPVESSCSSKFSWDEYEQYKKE
Test: IRAK endogenous HTRF degradation assay (Total-IRAK3 HTRF kit)
Format: cell-based
Conditions: overnight incubation, lowest percentage of protein remaining
In short: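 Cells (~50 k) incubated overnight with 3-fold serial dilutions of compound, then lysed; total IRAK3 read by HTRF (665/615 nm ratio ×10,000), normalized to DMSO as 100%. EC50 from four-parameter logistic fit; Dmax = 100 − Ymin (lowest % protein remaining); DC50 = concentration giving 50% degradation.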

Row | IRAK3 HTRF degradation Ymin | Structure (SMILES)
1 | 13% | Cc1cc(-c2cnc(Nc3cnn([C@H]4CC[C@@H](CN5CCN(c6ccc(C7CCC(=O)NC7=O)cc6)CC5)CC4)c3)c3nccn23)c(F)cc1F (relative stereo) [Compound 71, 3-(4-(4-(((cis)-4-(4-((5-(2,4-difluoro-5-methylphenyl)imidazo[1,2-a]pyrazin-8-yl)amino)-1H-pyrazol-1-yl)cyclohexyl)methyl)piperazin-1-yl)phenyl) piperidine-2,6-dione]
2 | 13% | Cc1cc(-c2cnc(Nc3cnn([C@H]4CC[C@@H](CCN5CCN(c6ccc(C7CCC(=O)NC7=O)cc6)CC5)CC4)c3)c3nccn23)c(F)cc1F (stereo partly drawn) [Compound 14, 3-(4-(4-(2-((cis)-4-(4-((5-(2,4-difluoro-5-methylphenyl)imidazo[1,2-a]pyrazin-8-yl)amino)-1H-pyrazol-1-yl)cyclohexyl)ethyl)piperazin-1-yl)phenyl) piperidine-2,6-dione]
3 | 45% | Cc1cccc(-c2cnc(Nc3cnn(C4CCN(CC(=O)N5CCN(c6ccc7c(c6)C(=O)N(C6CCC(=O)NC6=O)C7)CC5)CC4)c3)c3nccn23)c1 (centres unmarked) [Compound 16, 3-(1-oxo-6-(4-(2-(4-(4-((5-(m-tolyl)imidazo[1,2-a]pyrazin-8-yl)amino)-1H-pyrazol-1-yl)piperidin-1-yl)acetyl)piperazin-1-yl)isoindolin-2-yl)piperidine-2,6-dione]
4 | 15% | Cc1cc(-c2cnc(Nc3cnn(C4CCN(CC(=O)N5CCN(c6ccc(C7CCC(=O)NC7=O)cc6)CC5)CC4)c3)c3nccn23)c(F)cc1F (centres unmarked) [Compound 17, 3-(4-(4-(2-(4-(4-((5-(2,4-difluoro-5-methylphenyl)imidazo[1,2-a]pyrazin-8-yl)amino)-1H-pyrazol-1-yl)piperidin-1-yl)acetyl)piperazin-1-yl)phenyl)piperidine-2,6-dione]
5 | 20% | Cc1cc(-c2cnc(Nc3cnn(C4CCN(CC(=O)N5CCN(c6ccc7c(c6)C(=O)N(C6CCC(=O)NC6=O)C7)CC5)CC4)c3)c3nccn23)c(F)cc1F (centres unmarked) [Compound 18, 3-(6-(4-(2-(4-(4-((5-(2,4-difluoro-5-methylphenyl)imidazo[1,2-a]pyrazin-8-yl)amino)-1H-pyrazol-1-yl)piperidin-1-yl)acetyl)piperazin-1-yl)-1-oxoisoindolin-2-yl)piperidine-2,6-dione]
6 | 18% | Cc1cccc(-c2cnc(Nc3cnn(C4CCN(CC(=O)N5CCN(c6ccc7c(c6)CN(C6CCC(=O)NC6=O)C7=O)CC5)CC4)c3)c3nccn23)c1 (centres unmarked) [Compound 19, 3-(1-oxo-5-(4-(2-(4-(4-((5-(m-tolyl)imidazo[1,2-a]pyrazin-8-yl)amino)-1H-pyrazol-1-yl)piperidin-1-yl)acetyl)piperazin-1-yl)isoindolin-2-yl)piperidine-2,6-dione]
7 | 40% | Cc1cc(-c2cnc(Nc3cnn(C4CCN(CCN5CCN(c6cccc(C7CCC(=O)NC7=O)c6)CC5)CC4)c3)c3nccn23)c(F)cc1F (centres unmarked) [Compound 31, 3-(3-(4-(2-(4-(4-((5-(2,4-difluoro-5-methylphenyl)imdazo [1,2-a]pyrazin-8-yl)amino)-1H-pyrazol-1-yl)piperidin-1-yl)ethyl)piperazin-1-yl)phenyl) piperidine-2,6-dione]
8 | 13% | Cc1cc(-c2cnc(Nc3cnn(C4CCN(CCN5CCN(c6ccc(C7CCC(=O)NC7=O)cc6)CC5)CC4)c3)c3nccn23)ccc1F (centres unmarked) [Compound 33, 3-(4-(4-(2-(4-(4-((5-(4-fluoro-3-methylphenyl)imdazo [1,2-a]pyrazin-8-yl)amino)-1H-pyrazol-1-yl)piperidin-1-yl)ethyl)piperazin-1-yl)phenyl) piperidine-2,6-dione]

Second part, the molecule before the results:

Row | Structure (SMILES) | IRAK3 HTRF degradation Ymin
9 | Cc1cccc(-c2cnc(Nc3cnn(C4CCN(CC(=O)N5CCN(c6ccc7c(c6)C(=O)N(C6CCC(=O)NC6=O)C7=O)CC5)CC4)c3)c3nccn23)c1 (centres unmarked) [Compound 1, 2-(2,6-dioxopiperidin-3-yl)-5-(4-(2-(4-(4-((5-(m-tolyl)imidazo[1,2-a]pyrazin-8-yl)amino)-1H-pyrazol-1-yl)piperidin-1-yl)acetyl)piperazin-1-yl)isoindoline-1,3-dione] | 27%
10 | Cc1cccc(-c2cnc(Nc3cnn(C4CCN(CCN5CCN(c6ccc7c(c6)C(=O)N(C6CCC(=O)NC6=O)C7=O)CC5)CC4)c3)c3nccn23)c1 (centres unmarked) [Compound 2, 2-(2,6-dioxopiperidin-3-yl)-5-(4-(2-(4-(4-((5-(m-tolyl)imidazo[1,2-a]pyrazin-8-yl)amino)-1H-pyrazol-1-yl)piperidin-1-yl)ethyl)piperazin-1-yl)isoindoline-1,3-dione] | 18%
11 | Cc1cccc(-c2cnc(Nc3cnn(C4CCN(CCCCN5CCN(c6ccc(C7CCC(=O)NC7=O)cc6)CC5)CC4)c3)c3nccn23)c1 (centres unmarked) [Compound 3, 3-(4-(4-(4-(4-(4-((5-(m-tolyl)imidazo[1,2-a]pyrazin-8-yl)amino)-1H-pyrazol-1-yl)piperidin-1-yl)butyl)piperazin-1-yl)phenyl) piperidine-2,6-dione] | 11%
12 | Cc1cccc(-c2cnc(Nc3cnn(C4CCN(CCCN5CCN(c6ccc(C7CCC(=O)NC7=O)cc6)CC5)CC4)c3)c3nccn23)c1 (centres unmarked) [Compound 4, 3-(4-(4-(3-(4-(4-((5-(m-tolyl)imidazo[1,2-a]pyrazin-8-yl)amino)-1H-pyrazol-1-yl)piperidin-1-yl)propyl)piperazin-1-yl)phenyl) piperidine-2,6-dione] | 17%
13 | Cc1cc(-c2cnc(Nc3cnn(C4CCN(CC(=O)N5CCN(c6ccc7c(c6)C(=O)N(C6CCC(=O)NC6=O)C7=O)CC5)CC4)c3)c3nccn23)c(F)cc1F (centres unmarked) [Compound 6, 5-(4-(2-(4-(4-((5-(2,4-difluoro-5-methylphenyl)imidazo[1,2-a]pyrazin-8-yl)amino)-1H-pyrazol-1-yl)piperidin-1-yl)acetyl)piperazin-1-yl)-2-(2,6-dioxopiperidin-3-yl)isoindoline-1,3-dione] | 23%
14 | Cc1cc(-c2cnc(Nc3cnn(C4CCN(CCN5CCN(c6ccc(C7CCC(=O)NC7=O)cc6)C[C@@H]5C)CC4)c3)c3nccn23)c(F)cc1F (stereo partly drawn) [Compound 7, 3-(4-((S)-4-(2-(4-(4-((5-(2,4-difluoro-5-methylphenyl)imdazo [1,2-a]pyrazin-8-yl)amino)-1H-pyrazol-1-yl)piperidin-1-yl)ethyl)-3-methylpiperazin-1-yl)phenyl) piperidine-2,6-dione] | 12%
15 | Cc1cc(-c2cnc(Nc3cnn(C4CCN(CCN5CCN(c6ccc(C7CCC(=O)NC7=O)cc6)CC5)CC4)c3)c3nccn23)c(F)cc1F (centres unmarked) [Compound 8, 3-(4-(4-(2-(4-(4-((5-(2,4-difluoro-5-methylphenyl)imidazo[1,2-a]pyrazin-8-yl)amino)-1H-pyrazol-1-yl)piperidin-1-yl)ethyl)piperazin-1-yl)phenyl)piperidine-2,6-dione] | 9%
16 | Cc1cc(-c2cnc(Nc3cnn(C4CCN(CCN5CCN(c6ccc(C7CCC(=O)NC7=O)cc6)C[C@H]5C)CC4)c3)c3nccn23)c(F)cc1F (stereo partly drawn) [Compound 9, 3-(4-((R)-4-(2-(4-(4-((5-(2,4-difluoro-5-methylphenyl)imdazo [1,2-a]pyrazin-8-yl)amino)-1H-pyrazol-1-yl)piperidin-1-yl)ethyl)-3-methylpiperazin-1-yl)phenyl) piperidine-2,6-dione] | 14%
17 | Cc1cc(-c2cnc(Nc3cnn(C4CCN(CC(=O)N5CCN(c6ccc7c(c6)CN(C6CCC(=O)NC6=O)C7=O)CC5)CC4)c3)c3nccn23)c(F)cc1F (centres unmarked) [Compound 10, 3-(5-(4-(2-(4-(4-((5-(2,4-difluoro-5-methylphenyl)imidazo[1,2-a]pyrazin-8-yl)amino)-1H-pyrazol-1-yl)piperidin-1-yl)acetyl)piperazin-1-yl)-1-oxoisoindolin-2-yl)piperidine-2,6-dione] | 14%
18 | Cc1cc(-c2cnc(Nc3cnn([C@H]4CC[C@H](CCN5CCN(c6ccc(C7CCC(=O)NC7=O)cc6)CC5)CC4)c3)c3nccn23)c(F)cc1F (stereo partly drawn) [Compound 11, 3-(4-(4-(2-((trans)-4-(4-((5-(2,4-difluoro-5-methylphenyl)imidazo[1,2-a]pyrazin-8-yl)amino)-1H-pyrazol-1-yl)cyclohexyl)ethyl)piperazin-1-yl)phenyl)piperidine-2,6-dione] | 12%
19 | Cc1cc(-c2ccc(Nc3cnn(C4CCN(CCN5CCN(c6ccc(C7CCC(=O)NC7=O)cc6)CC5)CC4)c3)c3nccn23)c(F)cc1F (centres unmarked) [Compound 12, 3-(4-(4-(2-(4-(4-((5-(2,4-difluoro-5-methylphenyl)imdazo [1,2-a]pyridin-8-yl)amino)-1H-pyrazol-1-yl)piperidin-1-yl)ethyl)piperazin-1-yl)phenyl) piperidine-2,6-dione] | 13%
20 | Cc1cc(-c2cnc(Nc3cnn(C4CCN(CCN5[C@H](C)CN(c6ccc(C7CCC(=O)NC7=O)cc6)C[C@@H]5C)CC4)c3)c3nccn23)c(F)cc1F (stereo partly drawn) [Compound 13, 3-(4-((3S,5R)-4-(2-(4-(4-((5-(2,4-difluoro-5-methylphenyl)imdazo [1,2-a]pyrazin-8-yl)amino)-1H-pyrazol-1-yl)piperidin-1-yl)ethyl)-3,5-dimethylpiperazin-1-yl)phenyl) piperidine-2,6-dione] | 11%
